Laboratory results as given in DBAASP.
Values after ≈ are worked out from the molar mass of the structure shown.

Experiments:
Assay in all cases: ≥ marks a high value that may be exact or a test limit, other limits are often not marked, values filed in µg/mL are converted to µM
[1] = system: Batrachochytrium dendrobatidis JEL-197
[2] = system: Escherichia coli ATCC 25726
[3] = system: Staphylococcus aureus ATCC 25923
[4] = system: Candida albicans ATCC 90028
Escherichia coli BL21 = system: Escherichia coli BL21
[5] = system: Pseudomonas aeruginosa PAO1
[6] = system: Streptococcus pyogenes M1T1 5448
Bacillus subtilis = system: Bacillus subtilis
[7] = system: Candida albicans ATCC 2002
Escherichia coli ML-35p = system: Escherichia coli ML-35p
[8] = system: Staphylococcus aureus ATCC 43300
Escherichia coli MG1655 = system: Escherichia coli MG1655

SMILES | MIC [1] [µM] | MIC [2] [µM] | MIC [3] [µM] | MIC (Escherichia coli BL21) [µM] | MIC [5] [µM] | MIC [6] [µM] | further results
CC[C@H](C)[C@@H]1NC(=O)[C@H](CC(C)C)NC(=O)[C@@H](NC(=O)[C@@H](NC(=O)[C@@H](NC(=O)[C@H](CCCCN)NC(=O)[C@@H]2CCCN2C(=O)[C@@H](NC(=O)[C@@H](NC(=O)[C@H](CCCN=C(N)N)NC(=O)[C@H](C)NC(=O)[C@H](C)NC(=O)[C@@H](NC(=O)CNC(=O)[C@H](C)NC(=O)[C@H](CC(C)C)NC(=O)[C@H](CCSC)NC(=O)[C@@H]2CCCN2C(=O)[C@H](Cc2ccccc2)NC(=O)[C@@H](N)Cc2ccccc2)C(C)C)C(C)C)C(C)C)C(C)C)[C@@H](C)CC)CSSC[C@@H](C(=O)O)NC(=O)[C@H](CCCCN)NC(=O)[C@H](CCCCN)NC(=O)[C@H]([C@@H](C)O)NC1=O [FFPMLAGVAARVVPKVICLITKKC] | 6.25 (≈ 16.3 µg/mL) | ≥ 50 | 12.5 (≈ 32.5 µg/mL) |  |  |  | 
CC[C@H](C)[C@H](NC(=O)[C@H](CCCCN)NC(=O)[C@H](CCCCN)NC(=O)[C@H](CCCCN)NC(=O)[C@H](CC(C)C)NC(=O)[C@H](Cc1ccccc1)NC(=O)[C@H](CCC(N)=O)NC(=O)[C@H](CCCN=C(N)N)NC(=O)[C@@H](NC(=O)[C@@H](NC(=O)[C@H](CCC(=O)O)NC(=O)[C@H](CCCCN)NC(=O)CNC(=O)[C@H](C)N)[C@@H](C)O)[C@@H](C)CC)C(=O)N[C@@H](CCC(N)=O)C(=O)N[C@@H](CCC(=O)O)C(=O)N[C@@H](Cc1c[nH]c2ccccc12)C(=O)N[C@@H](CCCCN)C(=O)N[C@@H](CCCCN)C(=O)N[C@@H](CCCN=C(N)N)C(=O)N[C@@H](C)C(=O)N[C@H](C(=O)N[C@H](C(=O)N[C@@H](C)C(=O)N[C@@H](Cc1c[nH]c2ccccc12)C(=O)O)[C@@H](C)CC)[C@@H](C)O [AGKETIRQFLKKKIQEWKKRATIAW] |  |  |  | 0.5 (≈ 1.53 µg/mL) | 16 (≈ 48.9 µg/mL) | 0.5 (≈ 1.53 µg/mL) | 
CC[C@H](C)[C@H](NC(=O)[C@H](CCCCN)NC(=O)CNC(=O)[C@H](Cc1ccccc1)NC(=O)[C@H](CCCCN)NC(=O)[C@H](CCCN=C(N)N)NC(=O)[C@H](CC(C)C)NC(=O)[C@H](Cc1ccc(O)cc1)NC(=O)[C@H](CCC(=O)O)NC(=O)[C@H](CC(C)C)NC(=O)[C@H](CC(C)C)NC(=O)[C@H](CCC(=O)O)NC(=O)[C@H](CCCCN)NC(=O)[C@@H](NC(=O)[C@H](CC(C)C)NC(=O)[C@H](CCCN=C(N)N)NC(=O)[C@H](CCC(N)=O)NC(=O)[C@H](C)NC(=O)CNC(=O)[C@H](C)N)[C@@H](C)O)C(=O)N[C@@H](C)C(=O)N[C@@H](CCCN=C(N)N)C(=O)N[C@@H](CCCCN)C(=O)N[C@@H](C)C(=O)N[C@@H](Cc1c[nH]c2ccccc12)C(=O)O [AGAQRLTKELLEYLRKFGKIARKAW] |  |  |  | 4 (≈ 11.8 µg/mL) | 64 (≈ 189 µg/mL) | 0.5 (≈ 1.47 µg/mL) | 
CC[C@H](C)[C@H](NC(=O)[C@H](CCCCN)NC(=O)CNC(=O)[C@H](CC(C)C)NC(=O)[C@H](Cc1ccccc1)NC(=O)[C@H](CCC(N)=O)NC(=O)[C@H](Cc1ccccc1)NC(=O)[C@@H](N)C(C)C)C(=O)N[C@H](C(=O)N[C@@H](Cc1cnc[nH]1)C(=O)N[C@@H](Cc1cnc[nH]1)C(=O)N[C@H](C(=O)NCC(=O)N[C@@H](CC(N)=O)C(=O)N[C@@H](Cc1ccccc1)C(=O)N[C@H](C(=O)N[C@@H](C)C(=O)NCC(=O)N[C@@H](Cc1ccccc1)C(=O)N[C@@H](CO)C(=O)N[C@@H](Cc1cnc[nH]1)C(=O)N[C@H](C(=O)N[C@@H](Cc1ccccc1)C(N)=O)C(C)C)C(C)C)C(C)C)[C@@H](C)CC [VFQFLGKIIHHVGNFVAGFSHVF] |  |  |  |  |  |  | MIC (Escherichia coli MG1655): ≥ 128 µM
CC[C@H](C)[C@H](NC(=O)[C@H](CCCCN)NC(=O)CNC(=O)[C@H](Cc1ccccc1)NC(=O)[C@H](CCCCN)NC(=O)[C@H](CCCN=C(N)N)NC(=O)[C@H](CC(C)C)NC(=O)[C@H](Cc1ccc(O)cc1)NC(=O)[C@H](CCC(=O)O)NC(=O)[C@H](CC(C)C)NC(=O)[C@H](CC(C)C)NC(=O)[C@H](CCC(=O)O)NC(=O)[C@H](CCCCN)NC(=O)[C@@H](NC(=O)[C@H](CC(C)C)NC(=O)[C@H](CCCN=C(N)N)NC(=O)[C@H](CC(N)=O)NC(=O)[C@H](C)NC(=O)[C@H](CCCCN)NC(=O)[C@H](C)N)[C@@H](C)O)C(=O)N[C@@H](C)C(=O)N[C@@H](CCCN=C(N)N)C(=O)N[C@@H](CCCCN)C(=O)N[C@@H](C)C(=O)N[C@@H](Cc1c[nH]c2ccccc12)C(=O)O [AKANRLTKELLEYLRKFGKIARKAW] |  |  |  | 2 (≈ 6.01 µg/mL) | 16 (≈ 48.1 µg/mL) | 4 (≈ 12 µg/mL) | 
CC[C@H](C)[C@H](NC(=O)[C@H](Cc1ccccc1)NC(=O)[C@H](C)NC(=O)[C@H](CCCCN)NC(=O)[C@H](CCCCN)NC(=O)CNC(=O)[C@H](CCCN=C(N)N)NC(=O)[C@H](CCCCN)NC(=O)[C@H](CCCN=C(N)N)NC(=O)[C@H](CC(C)C)NC(=O)[C@H](CCC(=O)O)NC(=O)[C@H](CCC(=O)O)NC(=O)[C@H](CCCCN)NC(=O)[C@H](CC(C)C)NC(=O)[C@H](Cc1ccc(O)cc1)NC(=O)[C@H](CC(C)C)NC(=O)[C@@H](NC(=O)[C@H](CC(C)C)NC(=O)[C@H](C)NC(=O)[C@H](CCC(N)=O)NC(=O)[C@H](CCCN=C(N)N)NC(=O)CNC(=O)[C@H](C)N)[C@@H](C)O)C(=O)N[C@@H](Cc1c[nH]c2ccccc12)C(=O)N[C@@H](Cc1c[nH]c2ccccc12)C(=O)O [AGRQALTLYLKEELRKRGKKAFIWW] |  |  |  | 16 (≈ 49 µg/mL) | > 128 | 4 (≈ 12.3 µg/mL) | 
CC[C@H](C)[C@H](NC(=O)[C@H](Cc1ccc(O)cc1)NC(=O)[C@H](CCCCN)NC(=O)[C@H](CCCCN)NC(=O)[C@H](CC(C)C)NC(=O)[C@H](CCC(=O)O)NC(=O)[C@H](CCCCN)NC(=O)[C@H](Cc1c[nH]c2ccccc12)NC(=O)[C@@H](NC(=O)[C@H](CCCN=C(N)N)NC(=O)[C@H](CCC(=O)O)NC(=O)[C@H](CO)NC(=O)CNC(=O)[C@H](C)N)[C@@H](C)CC)C(=O)N[C@@H](CCCCN)C(=O)N[C@@H](CCCCN)C(=O)NCC(=O)N[C@@H](CCCCN)C(=O)N[C@@H](CCCCN)C(=O)N[C@H](C(=O)N[C@H](C(=O)N[C@@H](CCCN=C(N)N)C(=O)N[C@@H](C)C(=O)N[C@@H](C)C(=O)N[C@@H](Cc1c[nH]c2ccccc12)C(=O)O)[C@@H](C)CC)C(C)C [AGSERIWKELKKYIKKGKKVIRAAW] |  |  |  | 2 (≈ 5.98 µg/mL) | 8 (≈ 23.9 µg/mL) | 16 (≈ 47.8 µg/mL) | 

Second part, led by results:

MIC [1] [µM] | MIC [2] [µM] | MIC [3] [µM] | MIC (Escherichia coli BL21) [µM] | MIC [5] [µM] | MIC [6] [µM] | SMILES | further results
≥ 50 | ≥ 160 | 80 (≈ 232 µg/mL) |  |  |  | CC[C@H](C)[C@H](NC(=O)CN)C(=O)N[C@@H](CC(C)C)C(=O)N[C@@H](CC(=O)O)C(=O)N[C@H](C(=O)N[C@H](C(=O)N[C@@H](CCCCN)C(=O)NCC(=O)N[C@H](C(=O)N[C@@H](C)C(=O)N[C@@H](CCCCN)C(=O)N[C@@H](CC(=O)O)C(=O)N[C@H](C(=O)N[C@@H](C)C(=O)N[C@@H](C)C(=O)N[C@@H](Cc1cnc[nH]1)C(=O)N[C@@H](CC(C)C)C(=O)N[C@@H](CC(C)C)C(=O)N[C@@H](CC(N)=O)C(=O)N[C@@H](CCSC)C(=O)N[C@H](C(=O)N[C@@H](CCCCN)C(=O)N[C@H]1CSSC[C@@H](C(=O)O)NC(=O)CNC(=O)[C@H]([C@@H](C)O)NC(=O)[C@H]([C@@H](C)CC)NC(=O)[C@H](CCCCN)NC1=O)C(C)C)C(C)C)C(C)C)C(C)C)[C@@H](C)O [GILDTVKGVAKDVAAHLLNMVKCKITGC] | 
12.5 (≈ 31.9 µg/mL) | ≥ 100 | 25 (≈ 63.8 µg/mL) |  |  |  | CC[C@H](C)[C@H](NC(=O)[C@H](CO)NC(=O)[C@@H]1CCCN1C(=O)[C@@H](NC(=O)[C@H](CC(C)C)NC(=O)CNC(=O)[C@H](C)NC(=O)[C@H](CC(C)C)NC(=O)[C@@H](NC(=O)[C@@H]1CCCN1C(=O)[C@H](CC(C)C)NC(=O)[C@@H](N)Cc1ccccc1)C(C)C)[C@@H](C)O)C(=O)N[C@H](C(=O)N1CCC[C@H]1C(=O)N[C@@H](CCCCN)C(=O)N[C@@H](CC(C)C)C(=O)N[C@H](C(=O)N[C@H]1CSSC[C@@H](C(=O)O)NC(=O)[C@H](CCCCN)NC(=O)[C@H](CCCCN)NC(=O)[C@H]([C@@H](C)O)NC(=O)[C@H](CC(C)C)NC(=O)[C@H](CC(C)C)NC1=O)C(C)C)C(C)C [FLPVLAGLTPSIVPKLVCLLTKKC] | MIC [4]: 25 µM (≈ 63.8 µg/mL)
 |  | 0.919 (≈ 2.34 µg/mL) |  |  |  | CC[C@H](C)[C@H](NC(=O)CNC(=O)[C@H](C)NC(=O)[C@H](C)NC(=O)[C@@H](NC(=O)[C@H](CCCCN)NC(=O)[C@H](CC(C)C)NC(=O)[C@@H](NC(=O)[C@@H]1CCCN1C(=O)CNC(=O)[C@@H](NC(=O)[C@@H](N)Cc1ccccc1)[C@@H](C)CC)C(C)C)[C@@H](C)CC)C(=O)N[C@@H](CC(C)C)C(=O)N1CCC[C@H]1C(=O)N[C@H](C(=O)N[C@@H](C)C(=O)N[C@H](C(=O)N[C@H]1CSSC[C@@H](C(=O)O)NC(=O)[C@H](CCCCN)NC(=O)[C@H](CCCCN)NC(=O)[C@H](Cc2ccccc2)NC(=O)[C@H]([C@@H](C)CC)NC(=O)[C@H](CCCCN)NC1=O)[C@@H](C)CC)[C@@H](C)O [FIGPVLKIAAGILPTAICKIFKKC] | MIC (Bacillus subtilis): 1.84 µM (≈ 4.69 µg/mL); MIC [7]: 1.84 µM (≈ 4.69 µg/mL); MIC (Escherichia coli ML-35p): 7.37 µM (≈ 18.7 µg/mL); MIC [8]: 3.69 µM (≈ 9.37 µg/mL)
12.5 (≈ 31.8 µg/mL) | ≥ 50 | 6 (≈ 15.3 µg/mL) |  |  |  | CC[C@H](C)[C@@H]1NC(=O)[C@H](CC(C)C)NC(=O)[C@@H](NC(=O)[C@@H](NC(=O)[C@H](CC(C)C)NC(=O)[C@H](CCCCN)NC(=O)[C@@H]2CCCN2C(=O)[C@@H](NC(=O)[C@H](CCSC)NC(=O)[C@H](CO)NC(=O)[C@H](C)NC(=O)[C@H](C)NC(=O)[C@H](CC(C)C)NC(=O)CNC(=O)[C@H](C)NC(=O)[C@H](CC(C)C)NC(=O)[C@H](CCSC)NC(=O)[C@@H]2CCCN2C(=O)[C@H](CC(C)C)NC(=O)[C@@H](N)Cc2ccccc2)C(C)C)C(C)C)CSSC[C@@H](C(=O)O)NC(=O)[C@H](CCCCN)NC(=O)[C@H](CCCCN)NC(=O)[C@H]([C@@H](C)O)NC1=O [FLPMLAGLAASMVPKLVCLITKKC] | MIC [4]: 12 µM (≈ 30.6 µg/mL)
